Data from PMC10184313, “Inhibition of Thiamine Diphosphate-Dependent Enzymes by Triazole-Based Thiamine Analogues” (ACS Medicinal Chemistry Letters, 2023).
Read-outs that look alike come from different tables or passages of the source.

Columns and labels:
[1] = molecular target: T1, E. coli OGDHc E1 (Escherichia coli, UniProt P0AFG3); assay: E. coli OGDHc E1 inhibitory activity assay (DCPIP reduction); type: biochemical; conditions: for IC50: [ThDP] 30 μM; for Ki: determined according to the KM for ThDP
T1 sequence (P0AFG3 1-933): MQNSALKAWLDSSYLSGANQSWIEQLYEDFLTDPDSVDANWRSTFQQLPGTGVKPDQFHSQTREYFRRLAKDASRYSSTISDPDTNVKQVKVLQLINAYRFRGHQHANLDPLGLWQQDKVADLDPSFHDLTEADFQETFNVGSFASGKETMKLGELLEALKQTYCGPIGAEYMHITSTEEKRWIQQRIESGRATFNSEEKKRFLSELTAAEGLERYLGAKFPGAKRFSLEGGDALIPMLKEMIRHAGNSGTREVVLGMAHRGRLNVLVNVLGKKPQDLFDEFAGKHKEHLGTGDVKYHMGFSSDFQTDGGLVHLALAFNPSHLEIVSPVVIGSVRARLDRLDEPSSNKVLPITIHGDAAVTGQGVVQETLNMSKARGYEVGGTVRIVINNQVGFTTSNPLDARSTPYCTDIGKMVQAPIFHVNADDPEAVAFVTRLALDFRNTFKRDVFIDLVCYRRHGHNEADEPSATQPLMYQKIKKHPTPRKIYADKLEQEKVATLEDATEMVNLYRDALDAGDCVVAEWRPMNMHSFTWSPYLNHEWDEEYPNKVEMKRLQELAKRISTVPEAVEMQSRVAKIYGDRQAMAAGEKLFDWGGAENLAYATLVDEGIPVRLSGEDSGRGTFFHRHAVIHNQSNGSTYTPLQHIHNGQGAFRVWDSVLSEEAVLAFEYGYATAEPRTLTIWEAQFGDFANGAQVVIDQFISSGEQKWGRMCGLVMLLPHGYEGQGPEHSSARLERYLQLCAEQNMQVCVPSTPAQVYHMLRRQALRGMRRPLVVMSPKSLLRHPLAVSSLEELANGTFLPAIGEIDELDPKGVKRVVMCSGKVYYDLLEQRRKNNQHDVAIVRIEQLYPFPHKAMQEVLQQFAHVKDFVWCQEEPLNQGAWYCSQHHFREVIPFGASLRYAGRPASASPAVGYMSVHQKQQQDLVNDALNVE
Description: E. coli OGDHc E1 inhibitory activity assay. E. coli OGDHc E1 was from our previous work 5 and had been donated by R. Frank. Its activity was determined by monitoring DCPIP reduction at 600 nm using a microplate reader (CLARIOstar) and conducted as described 1,2 with some modifications. The percentage inhibition of compounds against E. coli OGDHc E1 was assayed at a final concentration of 250 µM. The reaction buffer (50 mM KH 2PO4 and 2 mM MgCl 2, pH 7) contained 50 µM ThDP (or 125 µM in the competition assay), 0.5 mM DCPIP, and 6.7 mg/ml E. coli OGDHc E1. The reaction mixture was preincubated at 37 °C for 60 min, then reaction was initiated by adding α-ketoglutarate to a final concentration of 10 mM. To determine the IC 50, ThDP concentration was lowered to 30 µM, and inhibitor concentration was varied (2-1000 µM). Specific activity was calculated using the molar […]
for the PDHc E1 assay. […] 5 […]

[2] = molecular target: T2, S. cerevisiae PDC (Saccharomyces cerevisiae, UniProt P06169); assay: S. cerevisiae PDC inhibitory activity assay (DCPIP reduction); type: biochemical; conditions: compounds insufficiently soluble were excluded; for inhibition at 1500 µM: read-out: Inhibition (%) Yeast PDC
T2 construct: purchased Sigma
T2 sequence (P06169 2-563 limits assumed): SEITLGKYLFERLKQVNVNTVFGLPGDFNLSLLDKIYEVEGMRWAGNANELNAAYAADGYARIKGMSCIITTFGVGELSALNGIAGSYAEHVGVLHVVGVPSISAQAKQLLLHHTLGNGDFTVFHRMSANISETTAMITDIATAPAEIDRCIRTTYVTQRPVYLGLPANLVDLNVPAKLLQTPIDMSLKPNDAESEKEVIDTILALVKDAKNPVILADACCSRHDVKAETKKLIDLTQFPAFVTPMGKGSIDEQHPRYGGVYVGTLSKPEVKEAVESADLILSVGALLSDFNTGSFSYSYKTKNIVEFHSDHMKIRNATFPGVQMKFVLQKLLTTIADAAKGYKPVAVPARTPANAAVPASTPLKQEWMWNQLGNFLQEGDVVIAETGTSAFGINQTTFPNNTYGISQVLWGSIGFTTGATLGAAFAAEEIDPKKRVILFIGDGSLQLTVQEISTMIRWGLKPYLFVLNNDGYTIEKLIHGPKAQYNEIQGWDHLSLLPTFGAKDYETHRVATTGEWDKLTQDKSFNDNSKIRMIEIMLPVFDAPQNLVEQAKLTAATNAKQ
Description: S. cerevisiae PDC inhibitory activity assay. S. cerevisiae PDC was purchased from Sigma. Its activity was determined by monitoring DCPIP reduction at 600 nm using a microplate reader (CLARIOstar) and conducted as described 1,2 with some modifications. The percentage inhibition of compounds was assayed at a final concentration of 1500 µM. The reaction buffer (50 mM KH 2PO4 and 1 mM MgCl 2, pH 7) contained 300 µM ThDP (or 750 µM in the competition assay), 0.27 mM DCPIP, and 0.15 mg/ml S. cerevisiae PDC. The reaction mixture was preincubated at 37 °C for 60 min, then reaction was initiated by adding pyruvate to a final concentration of 70 mM. Specific activity was calculated using the molar extinction coefficient of DCPIP, 21 mM -1 cm -1.3 […]

[3] = [Compound] = 250 μM, [ThDP] = 50 μM
[4] = [Compound] = 1.5 mM, [ThDP] = 0.3 mM
[5] = increased ThDP: [Compound] = 250 μM, [ThDP] = 125 μM
[6] = increased ThDP: [Compound] = 1500 μM, [ThDP] = 750 μM

Compound	inhibition at 250 µM [1, 3] [%]	inhibition at 1500 µM [2, 4] [%]	inhibition at 250 µM [1, 5] [%]	Inhibition (%) Yeast PDC [2, 4]	Inhibition (%) Yeast PDC [2, 6]	IC50 [1] [µM]	Ki [1] [µM]	inhibition at 1500 µM [2, 6] [%]
Cc1ncc(Cn2cc(CCCO)nn2)c(N)n1 [Compound 9b]	50 ± 3	35 ± 2						
Cc1ncc(Cn2cc(CCCCn3cc(-c4ccc(F)cc4)nn3)nn2)c(N)n1 [Compound 16c]	< 20		< 20	Insoluble	Insoluble			
Cc1ncc(Cn2cc(CCC(=O)Nc3ccccc3N)nn2)c(N)n1 [Compound 26a]	63 ± 2	< 20						
COc1ccc(-c2cn(CCCc3cn(Cc4cnc(C)nc4N)nn3)nn2)cc1 [Compound 17b]	< 20		< 20	Insoluble	Insoluble			
Cc1ncc(Cn2cc(CCOC(=O)c3cccc(C#N)c3)nn2)c(N)n1 [Compound 14a]	< 20			Insoluble				
Cc1ncc(Cn2cc(CCO)nn2)c(N)n1 [Compound 9a]	57 ± 4	37 ± 3						
Cc1ncc(Cn2cc(CCCCn3cc(-c4ccccc4)nn3)nn2)c(N)n1 [Compound 15c]	< 20		< 20	Insoluble	Insoluble			
Cc1ncc(Cn2cc(CCCn3cc(-c4ccccc4)nn3)nn2)c(N)n1 [Compound 15b]	< 20		< 20	Insoluble	Insoluble			
Cc1ncc(Cn2cc(CCC(=O)NO)nn2)c(N)n1 [Compound 24a]	73 ± 2	41 ± 3						
COc1ccc(-c2cn(CCCCc3cn(Cc4cnc(C)nc4N)nn3)nn2)cc1 [Compound 17c]	< 20		< 20	Insoluble	Insoluble			
Cc1ncc(Cn2cc(CCNC(=O)c3cccc(C#N)c3)nn2)c(N)n1 [Compound 20a]	< 20	< 20						
Cc1ncc(Cn2cc(CCCCC(=O)Nc3ccccc3N)nn2)c(N)n1 [Compound 26c]	30 ± 2	< 20						
Cc1ncc(Cn2cc(CCNS(=O)(=O)C(F)(F)F)nn2)c(N)n1 [Compound 18a]	48 ± 2	< 20						
Cc1ncc(Cn2cc(CCNC(=O)c3cccc(-c4noc(C(F)(F)F)n4)c3)nn2)c(N)n1 [Compound 19a]	< 20			Insoluble				
COc1ccccc1C(=O)NCCCc1cn(Cc2cnc(C)nc2N)nn1 [Compound 22b]	56 ± 3			Insoluble				
Cc1ncc(Cn2cc(CCCC(=O)NO)nn2)c(N)n1 [Compound 24b]	> 90	65 ± 2	78 ± 3			20 ± 2	2.02	42 ± 4
Cc1ncc(Cn2cc(CCCCC(=O)NO)nn2)c(N)n1 [Compound 24c]	> 90	63 ± 4	82 ± 2			15 ± 3	1.46	37 ± 4
Cc1ncc(Cn2cc(CCOC(=O)c3cccc(-c4noc(C(F)(F)F)n4)c3)nn2)c(N)n1 [Compound 13a]	< 20			Insoluble				
Cc1ncc(Cn2cc(CCCCO)nn2)c(N)n1 [Compound 9c]	51 ± 2	33 ± 4						
Cc1ncc(Cn2cc(CCCCNS(=O)(=O)C(F)(F)F)nn2)c(N)n1 [Compound 18c]	58 ± 4			Insoluble				
COc1cccc(C(=O)NCCc2cn(Cc3cnc(C)nc3N)nn2)c1 [Compound 21a]	63 ± 3	48 ± 2						
Cc1ncc(Cn2cc(CCCC(=O)Nc3ccccc3N)nn2)c(N)n1 [Compound 26b]	52 ± 2	28 ± 3						
Cc1ncc(Cn2cc(CCn3cc(-c4ccccc4)nn3)nn2)c(N)n1 [Compound 15a]	23 ± 3		< 20	Insoluble	Insoluble			
Cc1ncc(Cn2cc(CCn3cc(-c4ccc(F)cc4)nn3)nn2)c(N)n1 [Compound 16a]	25 ± 4		< 20	Insoluble	Insoluble			
COc1cccc(C(=O)NCCCCc2cn(Cc3cnc(C)nc3N)nn2)c1 [Compound 21c]	25 ± 3			Insoluble				
Cc1ncc(Cn2cc(CCCn3cc(-c4ccc(F)cc4)nn3)nn2)c(N)n1 [Compound 16b]	< 20		< 20	Insoluble	Insoluble			
COc1ccccc1C(=O)NCCc1cn(Cc2cnc(C)nc2N)nn1 [Compound 22a]	80 ± 4	61 ± 4						
COc1cccc(C(=O)NCCCc2cn(Cc3cnc(C)nc3N)nn2)c1 [Compound 21b]	58 ± 5	38 ± 5						
